Patent US8299077B2 (Roche Palo Alto LLC, priority 2009, dated 2012)

Key:
[1] = system: B cell receptor-mediated activation of B cells in human blood (CD69 expression); experiment: Inhibition of B cell activation in whole blood measured by CD69 expression; assay type: cell-based; conditions: anti-IgM stimulation, 20 h, 50% decrease of CD69-positive cells that are also CD20-positive
Method in brief: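 Healthy-donor human whole blood (heparin) preincubated with compound (nine-point, three-fold dilutions) for 30 min at 37 °C, then stimulated with goat F(ab′)2 anti-human IgM (50 μg/ml final) for 20 h. CD69-positive B cells (CD20 gating) measured by flow cytometry as percent positive; IC50 from dose-response fit.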

| SMILES | melting point | IC50 [1] |
| --- | --- | --- |
| Cn1cc(-c2cccc(-n3ncc4cc(C(C)(C)C)cc(F)c4c3=O)c2CO)cc(Nc2ccc(C(C)(C)C(=O)O)cn2)c1=O [Example 18, 2-(6-{5-[3-(6-tert-butyl-8-fluoro-1-oxo-1H-phthalazin-2-yl)-2-hydroxymethyl-phenyl]-1-methyl-2-oxo-1,2-dihydro-pyridin-3-ylamino}-pyridin-3-yl)-2-methyl-propionic acid] | 218 to 220 °C |  |
| CN1CC(Oc2ccc(Nc3cc(-c4cccc(-n5ncc6cc(C(C)(C)C)cc(F)c6c5=O)c4CO)cn(C)c3=O)nc2)C1 [Example 27, 6-tert-Butyl-8-fluoro-2-(2-hydroxymethyl-3-{1-methyl-5-[5-(1-methyl-azetidin-3-yloxy)-pyridin-2-ylamino]-6-oxo-1,6-dihydro-pyridin-3-yl}-phenyl)-2H-phthalazin-1-one] | > 300 °C |  |
| CCNCc1ccc(Nc2cc(-c3cccc(-n4ncc5cc(C(C)(C)C)cc(F)c5c4=O)c3CO)cn(C)c2=O)nc1 [Example 29, 6-tert-Butyl-2-{3-[5-(5-ethylaminomethyl-pyridin-2-ylamino)-1-methyl-6-oxo-1,6-dihydro-pyridin-3-yl]-2-hydroxymethyl-phenyl}-8-fluoro-2H-phthalazin-1-one] | 265 to 268 °C |  |
| Cn1cc(-c2cccc(-n3ncc4cc(C(C)(C)C)cc(F)c4c3=O)c2CO)cc(Nc2ccc(C(C)(C)O)cn2)c1=O [Example 37, 6-tert-Butyl-8-fluoro-2-(2-hydroxymethyl-3-{5-[5-(1-hydroxy-1-methyl-ethyl)-pyridin-2-ylamino]-1-methyl-6-oxo-1,6-dihydro-pyridin-3-yl}-phenyl)-2H-phthalazin-1-one] | 200 to 205 °C |  |
| CCNC(C)(C)c1ccc(Nc2cc(-c3cccc(-n4ncc5cc(C(C)(C)C)cc(F)c5c4=O)c3CO)cn(C)c2=O)nc1 [Example 260, 6-tert-Butyl-2-(3-{5-[5-(1-ethylamino-1-methyl-ethyl)-pyridin-2-ylamino]-1-methyl-6-oxo-1,6-dihydro-pyridin-3-yl}-2-hydroxymethyl-phenyl)-8-fluoro-2H-phthalazin-1-one] | 195 to 200 °C |  |
| CN1CCN(Cc2ccc(Nc3cc(-c4cccc(-n5ncc6cc(C(C)(C)C)cc(F)c6c5=O)c4CO)cn(C)c3=O)nc2)CC1 [Example I-15, 6-tert-butyl-8-fluoro-2-(2-hydroxymethyl-3-{1-methyl-5-[5-(4-methyl-piperazin-1-ylmethyl)-pyridin-2-ylamino]-6-oxo-1,6-dihydro-pyridin-3-yl}-phenyl)-2H-phthalazin-1-one] | 235 to 238 °C | 7 nM |
| CC(C)NCc1ccc(Nc2cc(-c3cccc(-n4ccc5cc(C6CC6)cc(F)c5c4=O)c3CO)cn(C)c2=O)nc1 [Example I-78, 6-Cyclopropyl-8-fluoro-2-(2-hydroxymethyl-3-{5-[5-(isopropylamino-methyl)-pyridin-2-ylamino]-1-methyl-6-oxo-1,6-dihydro-pyridin-3-yl}-phenyl)-2H-isoquinolin-1-one] |  | 20 nM |
| Cn1cc(-c2cccc(-n3ccc4cc(C5CC5)cc(F)c4c3=O)c2CO)cc(Nc2ccc(OCCO)cn2)c1=O [Example I-79, 6-Cyclopropyl-8-fluoro-2-(3-{5-[5-(2-hydroxy-ethoxy)-pyridin-2-ylamino]-1-methyl-6-oxo-1,6-dihydro-pyridin-3-yl}-2-hydroxymethyl-phenyl)-2H-isoquinolin-1-one] |  | 93 nM |
| Cn1cc(-c2cccc(-n3ccc4cc(C(C)(C)O)cc(F)c4c3=O)c2CO)nc(Nc2cnn(CC(F)F)c2)c1=O [Example I-80, 2-(3-{6-[1-(2,2-Difluoro-ethyl)-1H-pyrazol-4-ylamino]-4-methyl-5-oxo-4,5-dihydro-pyrazin-2-yl}-2-hydroxymethyl-phenyl)-8-fluoro-6-(1-hydroxy-1-methyl-ethyl)-2H-isoquinolin-1-one] |  | 31 nM |
| CCn1cc(Nc2nc(-c3cccc(-n4ccc5cc(C(C)(C)O)cc(F)c5c4=O)c3CO)cn(C)c2=O)cn1 [Example I-81, 2-{3-[6-(1-Ethyl-1H-pyrazol-4-ylamino)-4-methyl-5-oxo-4,5-dihydro-pyrazin-2-yl]-2-hydroxymethyl-phenyl}-8-fluoro-6-(1-hydroxy-1-methyl-ethyl)-2H-isoquinolin-1-one] |  | 13 nM |
| CC(O)Cn1cc(Nc2nc(-c3cccc(-n4ccc5cc(C6CC6)cc(F)c5c4=O)c3CO)cn(C)c2=O)cn1 (stereo not drawn) [Example I-82, 6-Cyclopropyl-8-fluoro-2-(2-hydroxymethyl-3-{6-[1-(2-hydroxy-propyl)-1H-pyrazol-4-ylamino]-4-methyl-5-oxo-4,5-dihydro-pyrazin-2-yl}-phenyl)-2H-isoquinolin-1-one] |  | 57 nM |
| CC(O)Cn1cc(Nc2nc(-c3cccc(-n4ncc5cc(C(C)(C)C)cc(F)c5c4=O)c3CO)cn(C)c2=O)cn1 (stereo not drawn) [Example I-83, 6-tert-Butyl-8-fluoro-2-(2-hydroxymethyl-3-{6-[1-(2-hydroxy-propyl)-1H-pyrazol-4-ylamino]-4-methyl-5-oxo-4,5-dihydro-pyrazin-2-yl}-phenyl)-2H-phthalazin-1-one] |  | 10 nM |
| Cn1cc(-c2cccc(-n3ncc4cc(C(C)(C)C)cc(F)c4c3=O)c2CO)nc(Nc2cnn(CC(F)F)c2)c1=O [Example I-84, 6-tert-Butyl-2-(3-{6-[1-(2,2-difluoro-ethyl)-1H-pyrazol-4-ylamino]-4-methyl-5-oxo-4,5-dihydro-pyrazin-2-yl}-2-hydroxymethyl-phenyl)-8-fluoro-2H-phthalazin-1-one] |  | 20 nM |
| Cn1cc(-c2cccc(-n3ncc4cc(C(C)(C)C)cc(F)c4c3=O)c2CO)cc(Nc2ccc(CN3CCC(N)C3)cn2)c1=O (stereo not drawn) [Example I-86, 2-(3-{5-[5-(3-Amino-pyrrolidin-1-ylmethyl)-pyridin-2-ylamino]-1-methyl-6-oxo-1,6-dihydro-pyridin-3-yl}-2-hydroxymethyl-phenyl)-6-tert-butyl-8-fluoro-2H-phthalazin-1-one] |  | 101 nM |
| Cn1cc(-c2cccc(-n3ncc4cc(C(C)(C)C)cc(F)c4c3=O)c2CO)cc(Nc2ccc(N3C[C@H]4CC[C@@H](C3)N4)cn2)c1=O [Example I-87, 6-tert-Butyl-2-(3-{5-[(1S,5R)-5-(3,8-diaza-bicyclo[3.2.1]oct-3-yl)-pyridin-2-ylamino]-1-methyl-6-oxo-1,6-dihydro-pyridin-3-yl}-2-hydroxymethyl-phenyl)-8-fluoro-2H-phthalazin-1-one] |  | 24 nM |
| CNCCOc1ccc(Nc2cc(-c3cccc(-n4ncc5cc(C(C)(C)C)cc(F)c5c4=O)c3CO)cn(C)c2=O)nc1 [Example I-88, 6-tert-Butyl-8-fluoro-2-(2-hydroxymethyl-3-{1-methyl-5-[5-(2-methylamino-ethoxy)-pyridin-2-ylamino]-6-oxo-1,6-dihydro-pyridin-3-yl}-phenyl)-2H-phthalazin-1-one] |  | 9 nM |
| CN1CCN(C)C(c2ccc(Nc3nc(-c4cccc(-n5ncc6cc(C(C)(C)C)cc(F)c6c5=O)c4CO)cn(C)c3=O)cc2)C1=O (stereo not drawn) [Example I-89, 6-tert-Butyl-2-(3-{6-[4-(1,4-dimethyl-3-oxo-piperazin-2-yl)-phenylamino]-4-methyl-5-oxo-4,5-dihydro-pyrazin-2-yl}-2-hydroxymethyl-phenyl)-8-fluoro-2H-phthalazin-1-one] |  | 12 nM |
